Source: patent publication US8541442B2, “Indole derivatives as anticancer agents” (Janssen Pharmaceutica N.V., priority 2009, dated 2013)
Read-outs that look alike come from different tables or passages of the source.

How the values were obtained:
[1] = test system: A2780 ovarian cancer cells; assay: Alamar Blue cell proliferation assay, A2780; format: cell-based, human; settings: 4-day incubation
Description: The human A2780 ovarian cancer cells were a kind gift from Dr. T. C. Hamilton (Fox Chase Cancer Centre, Pennsylvania, U.S.A.). The cells were cultured in RPMI 1640 medium supplemented with 2 mM L-Glutamine, 50 μg/ml gentamicin and 10% fetal calf serum.
Potassium Phosphate Buffer 0.1 M (PPB) was made as follows: 2.72 gram KH2PO4 and 13.86 gram K2HPO4 were dissolved in 500 ml milli-Q H2O, the pH was adjusted to pH 7.4 and the volume was brought to 1 liter with milli-Q H2O; the buffer was filter sterilised and stored at room temperature. Resazurin stock solution (PPB-A) was prepared fresh by dissolving 45 mg resazurin in 15 ml PBS. 30 mM potassium ferricyanide (PPB-B) was prepared by dissolving 0.987 gram potassium ferricyanide in 100 ml PPB. 30 mM potassium ferrocyanide (PPB-C) was prepared by dissolving 1.266 gram potassium ferrocyanide in 100 ml PPB.
Mixture of PPB-A, PPB-B and PPB-C was prepared by mixing equal volumes of the respective solutions. Resazurin work solution (herein termed “Alamar Blue” solution) was prepared by diluting said mixture 20×(vol/vol) in PPB and filter sterilising; the Alamar Blue solution could be kept at 4° C. for a maximum of 2 weeks.
(§1) For experiments in 384 wells plates the cells were seeded at a density of 5×10^3 cells/ml in Falcon 384-well culture plates (Life Technologies, Merelbeke, Belgium), black with clear bottom, in 45 μl culture medium. Cells were allowed to adhere to plastic for 24 hr. The tested compound was pre-diluted (1/50 in culture medium) and 5 μl pre-diluted compound was added to the wells. Following 4-day incubation, 10 μl of the Alamar Blue solution was added to each well and the cells were further incubated for 5 hrs (A2780) at 37° C. The fluorescence intensity was measured for each well with a Fluorescence plate reader (Fluorskan, Labsystems, 540 nm excitation and 590 nm emission)
(§2) The antiproliferative activity was calculated as percentage of remaining viable cells in treated versus control (untreated cells) conditions. Within an experiment, the result for each experimental condition is the mean of 3 replicate wells. When appropriate, the experiments were repeated to establish full concentration-response curves. When appropriate, IC50-values (concentration of the drug, needed to reduce cell growth to 50% of the control) were computed using probit analysis for graded data (Finney, D. J., Probit Analyses, 2nd Ed. Chapter 10, Graded Responses, Cambridge University Press, Cambridge 1962). Herein the effects of test compounds are expressed as pIC50 (the negative log value of the IC50-value (M)) (see Table 5A).

[2] = test system: non-small cell lung cancer cell line H1299; assay: Alamar Blue cell proliferation assay, H1299; format: cell-based; settings: H1299 cells
Description: as §1, §2
Compounds were also tested according to the above protocol but using other cell lines: colorectal cancer cell line HCT116, non-small cell lung cancer cell line H1299, human prostate cancer cell line DU145.

human U87 glioma tumor = assay: In vivo anti tumour effects, U87 glioma xenograft; settings: U87 xenograft in NMRI Nude mice, 20 mg/kg p.o. QD for 5 days; for response vs control in vivo at 20 mg/kg: Mus musculus, U-87 MG, po
Description: Immuno-deficient (athymic) male NMRI Nude (Nu/Nu) mice (20-25 g obtained from Janvier, France) were used for these studies. Initial weight was approximately […]. All animals were maintained under SPF “full barrier” conditions with free access to food and water. Mice were group housed under a 12-h light:dark cycle (lights on at 06:00 h) at a temperature of 19 to 22° C. and 35 to 40% humidity in Techniplast type-3 IVC cages. Mice were fed a standard Laboratory chow. All experiments were carried out in accordance with the European Communities Council Directives (86/609/EEC) and had to be approved by the local ethical committee. For an established tumor xenograft model (tumor volume ˜200 mm^3), mice were randomized according to tumor volumes, with 5 mice per treatment group.
The human U87 glioma tumor cell line was derived from a patient. Cells were cultured at 37° C. in a humidified atmosphere (5% CO2, 95% air), in DMEM medium supplemented with 2 mM L-glutamine, 2.0 mM sodium pyruvate, 25 units/ml penicillin/25 μg/ml streptomycin and 10% fetal bovine serum. Cells were maintained as cell monolayer cultures, being passaged twice weekly at 3×10^6 cells per T175 flask using the following procedure. Briefly cells were washed with PBS (without Mg^2+, Ca^2+), before addition of trypsin-EDTA to the culture flasks. After detachment of cells the trypsin-EDTA was inactivated by addition of complete medium. Cell suspension was then transferred to 50 ml Falcon tube and centrifuged for 3 min at 1200 rpm. Medium was aspirated, with the cells being re-suspended in an appropriate volume of complete medium. The cells were counted in a haemocytometer and their viability was assessed by 0.25% trypan blue exclusion. An appropriate volume of cell suspension was then added to either a new T175 culture flask(s) or roller bottle containing fresh medium. For large scale-up growth of U87 tumor cells, an appropriate number of roller bottles were seeded with 0.5 to 1×10^7 cells 1 week prior to inoculation of mice. The medium was changed twice during this period, with the last change being the day prior to cell injection. Cells were collected as described above, with the exception that after centrifugation, the cells were re-suspended in cold (4° C.) serum-free medium. Mice were injected in the inguinal region with 1×10^7 cells total in a 200 μl volume.
Human U87 glioma cells were injected directly into the inguinal region of the male NMRI Nude mice (1×10^7 cells/200 μl/animal) on day 0 (D0). On day 7-10 (can vary due to tumor take/growth between cell batches) when tumor volume had reached an approximate average of 200 mm^3, mice were randomized according to tumor volume, with 5 mice per treatment group. Mice were then treated once daily (QD) with either vehicle (10% HP-β-CD) or vehicle containing test compound (20 mg/kg) by gavage (p.o.) administered in a volume of 10 ml/kg body weight for 5 days. Specific tumor measurements were taken on day 6 (24 hours post 5th dose) and then again on day 10. Tumor re-growth (after dosing has stopped) was monitored so that the time-to-reach a volume of 2000 mm^3 (TTR2000) can be recorded. This gives extra information on the duration of drug action on the tumor growth. In general, tumor size and body weights were measured twice weekly, with mice monitored daily for clinical signs of toxicity for the duration of the treatment. Clinical signs of toxicity included (but not limited to), persistent anorexia or dehydration, posture, moribund, lethargy, hypothermia and/or laboured respiration (according to the UKCCCR guidelines for welfare of animals in experimental neoplasia (The UKCCCR (UK Coordinating Committee on Cancer Research) guidelines for the welfare of animals in experimental neoplasia (July 1997); and Workman, P. et al. UKCCCR guideline. Br. J. Cancer. 1998, 77: 1-10). […]

| SMILES | A2780 cell proliferation inhibition pIC50 [1] | H1299 cell proliferation inhibition pIC50 [2] | % T/C day 6 (human U87 glioma tumor; day 6 after start dosing) [%] | % T/C day 10 (human U87 glioma tumor; day 10 after start dosing) [%] | response vs control in vivo at 20 mg/kg (human U87 glioma tumor; 144 h, day 6 after start dosing, read-out: % T/C day 6) [%] | response vs control in vivo at 20 mg/kg (human U87 glioma tumor; 240 h, day 10 after start dosing, read-out: % T/C day 10) [%] |
| --- | --- | --- | --- | --- | --- | --- |
| COc1cc(Nc2ccnc3c2CCC3O)ccc1NCCc1c[nH]c2c(C(C)(C)O)cccc12 (centres unmarked) [Compound 11] | 6.55 | 5.81 | 72 | 79 | – | – |
| Cc1cc(Nc2ccnc3c2CCC3O)ccc1NCCc1c[nH]c2c(C(C)(C)O)cccc12 (centres unmarked) [Compound 18] | 7.47 | 6.38 | – | – | 9 | -3 |

More lines, main results first:

| A2780 cell proliferation inhibition pIC50 [1] | H1299 cell proliferation inhibition pIC50 [2] | SMILES | % T/C day 6 (human U87 glioma tumor; day 6 after start dosing) [%] | % T/C day 10 (human U87 glioma tumor; day 10 after start dosing) [%] | response vs control in vivo at 20 mg/kg (human U87 glioma tumor; 144 h, day 6 after start dosing, read-out: % T/C day 6) [%] | response vs control in vivo at 20 mg/kg (human U87 glioma tumor; 240 h, day 10 after start dosing, read-out: % T/C day 10) [%] |
| --- | --- | --- | --- | --- | --- | --- |
| 6.87 | 6.73 | COC1CCc2c(Nc3ccc(NCCc4c[nH]c5c(C(C)O)cccc45)c(C)c3)ccnc21 (centres unmarked) [Compound 16] | 63 | 64 | – | – |
| 7.34 | 5.46 | Cc1cc(Nc2ccnc(CO)c2)ccc1NCCc1c[nH]c2c(C(C)(C)O)cccc12 [Compound 19] | 57 | 40 | – | – |
| 6.26 | 5.09 | Cc1cc(Nc2ccncc2)ccc1NCCc1c[nH]c2c(C(O)C(C)C)cccc12 (centres unmarked) [Compound 22] | 40 | 55 | – | – |
